Test results from patent publication US20120196791A1, “COMBINATION THERAPIES USING ANTIBACTERIAL AMINOGLYCOSIDE COMPOUNDS” (Achaogen, Inc., priority 2009, published 2012).
Like-named read-outs stand apart in the source and are kept apart here.

Tests used:
S. aureus strains = assay: MIC by macrodilution; format: cell-based; conditions: Staphylococcus aureus
From the text: (§1) “MIC”, which stands for minimum inhibitory concentration, refers to that concentration, in μg/mL, of a compound of this invention that inhibits the growth and/or proliferation of a strain of bacteria by at least 80% compared to an untreated control as determined by visual inspection of a liquid culture.
Synergy time-kill was used to test the activity of Example 1, alone and in combination with daptomycin (DAP), ceftobiprole (BPR), and linezolid (LZD), against 25 S. aureus strains. 25 clinical isolates included 2 hVISA, 2 VISA, and 5 VRSA, 10 hospital acquired and 6 community acquired MRSA strains. MICs were determined by macrodilution and time-kill was used to verify the activity of all four agents alone. MICs were predetermined by macrodilution in cation-adjusted Mueller-Hinton broth (BBL Microbiology Systems, Cockeysville, Md.) according to standard methodology. Daptomycin susceptibility testing was performed in Mueller-Hinton broth adjusted to 50 μg/mL of calcium according to standard methodology. All strains were tested by time-kill methodology with each compound alone according to standard methods. Cultures were initiated by adding 35-μL aliquots of suspensions into 5 mL of broth. Viability counts (100-μL aliquots) in synergy tests were performed at 0, 3, 6, 12, and 24 h in a shaking water bath at 35° C. with final inocula of between 5×10^5 and 5×10^6 CFU/mL. Only plates with 30 to 300 colonies were counted.

P. aeruginosa strains = assay: MIC by macrodilution; format: cell-based; conditions: Pseudomonas aeruginosa
From the text: as §1
Synergy time-kill was used to test the activity of Example 1, alone and in combination with cefepime, doripenem, imipenem and piperacillin/tazobactam, against 10 P. aeruginosa strains. The 10 clinical isolates included 5 cefepime resistant, 5 doripenem resistant, 8 imipenem resistant, and 9 piperacillin/tazobactam resistant strains. MICs were determined by macrodilution and time-kill was used to verify the activity of all five agents alone. MICs were predetermined by macrodilution in cation-adjusted Mueller-Hinton broth (BBL Microbiology Systems, Cockeysville, Md.) according to standard methodology. All strains were tested by time-kill methodology with each compound alone according to standard methods. Strains were examined by PCR for genes encoding aminoglycoside modifying enzymes (AMEs). Cultures were initiated by adding 35-μL aliquots of suspensions into 5 mL of broth. Viability counts (100-μL aliquots) in synergy tests were performed at 0, 3, 6, 12, and 24 h in a shaking water bath at 35° C. with final inocula of between 5×10^5 and 5×10^6 CFU/mL. Only plates with 30 to 300 colonies were counted.

[1] = ATCC 33591 / MRSA, Strain 13, ATCC33591 HA-MRSA, read-out: MIC
[2] = MRSA, Strain 6, CA-MRSA, PVL+, read-out: MIC
[3] = MRSA, Strain 7, CA-MRSA, PVL+, read-out: MIC
[4] = MRSA, Strain 8, CA-MRSA, PVL+, read-out: MIC
[5] = MRSA, Strain 14, HA-MRSA, read-out: MIC
[6] = MRSA, Strain 15, HA-MRSA, read-out: MIC
[7] = MRSA, Strain 16, HA-MRSA, read-out: MIC
[8] = MRSA, Strain 17, HA-MRSA, read-out: MIC
[9] = MRSA, Strain 18, HA-MRSA, read-out: MIC
[10] = MRSA, Strain 19, HA-MRSA, read-out: MIC
[11] = MRSA, Strain 20, HA-MRSA, read-out: MIC
[12] = MRSA, Strain 21, HA-MRSA, read-out: MIC
[13] = MRSA, Strain 22, HA-MRSA, read-out: MIC
[14] = MRSA, Strain 23, CA-MRSA PVL+, read-out: MIC
[15] = MRSA, Strain 24, CA-MRSA PVL+, read-out: MIC
[16] = MRSA, Strain 25, CA-MRSA PVL neg, read-out: MIC
[17] = Strain 10, hVISA, read-out: MIC
[18] = VISA, Strain 11, VISA, read-out: MIC
[19] = VISA, Strain 12, VISA, read-out: MIC
[20] = VRSA, Strain 1, VRSA, read-out: MIC
[21] = VRSA, Strain 2, VRSA, read-out: MIC
[22] = VRSA, Strain 3, VRSA, read-out: MIC
[23] = VRSA, Strain 4, VRSA, read-out: MIC
[24] = VRSA, Strain 5, VRSA, read-out: MIC
[25] = range over 25 S. aureus strains, read-out: MICs of each agent alone

MIC (S. aureus strains; [1]) [µg/mL] | MIC (S. aureus strains; [2]) [µg/mL] | MIC (S. aureus strains; [3]) [µg/mL] | MIC (S. aureus strains; [4]) [µg/mL] | MIC (S. aureus strains; [5]) [µg/mL] | MIC (S. aureus strains; [6]) [µg/mL] | MIC (S. aureus strains; [7]) [µg/mL] | MIC (S. aureus strains; [8]) [µg/mL] | MIC (S. aureus strains; [9]) [µg/mL] | MIC (S. aureus strains; [10]) [µg/mL] | MIC (S. aureus strains; [11]) [µg/mL] | MIC (S. aureus strains; [12]) [µg/mL] | MIC (S. aureus strains; [13]) [µg/mL] | MIC (S. aureus strains; [14]) [µg/mL] | MIC (S. aureus strains; [15]) [µg/mL] | MIC (S. aureus strains; [16]) [µg/mL] | MIC (S. aureus strains; Strain 9, hVISA, read-out: MIC) [µg/mL] | MIC (S. aureus strains; [17]) [µg/mL] | MIC (S. aureus strains; [18]) [µg/mL] | MIC (S. aureus strains; [19]) [µg/mL] | Structure (SMILES) | also measured
0.5 | 0.5 | 0.5 | 0.5 | 0.25 | 0.5 | 1 | 0.5 | 0.5 | 0.5 | 0.5 | 0.5 | 0.5 | 1 | 0.5 | 0.5 | 1 | 0.5 | 4 | 2 | CCCCCCCCCC(=O)N[C@@H](Cc1c[nH]c2ccccc12)C(=O)N[C@H](CC(N)=O)C(=O)N[C@@H](CC(=O)O)C(=O)N[C@@H]1C(=O)NCC(=O)N[C@@H](CCCN)C(=O)N[C@@H](CC(=O)O)C(=O)N[C@H](C)C(=O)N[C@@H](CC(=O)O)C(=O)NCC(=O)N[C@H](CO)C(=O)N[C@@H]([C@H](C)CC(=O)O)C(=O)N[C@@H](CC(=O)c2ccccc2N)C(=O)O[C@@H]1C [Daptomycin, daptomycin] | MIC (S. aureus strains; [20]): 0.5 µg/mL; MIC (S. aureus strains; [21]): 0.25 µg/mL; MIC (S. aureus strains; [22]): 0.5 µg/mL; MIC (S. aureus strains; [23]): 0.5 µg/mL; MIC (S. aureus strains; [24]): 0.25 µg/mL; MIC (S. aureus strains; [25]): 0.25 to 4 µg/mL
2 | 4 | 4 | 2 | 4 | 4 | 4 | 4 | 4 | 4 | 4 | 4 | 4 | 4 | 4 | 4 | 4 | 2 | 2 | 4 | CC(=O)NC[C@H]1CN(c2ccc(N3CCOCC3)c(F)c2)C(=O)O1 [Linezolid, linezolid] | MIC (S. aureus strains; [20]): 2 µg/mL; MIC (S. aureus strains; [21]): 4 µg/mL; MIC (S. aureus strains; [22]): 2 µg/mL; MIC (S. aureus strains; [23]): 4 µg/mL; MIC (S. aureus strains; [24]): 2 µg/mL; MIC (S. aureus strains; [25]): 2 to 4 µg/mL
– | – | – | – | – | – | – | – | – | – | – | – | – | – | – | – | – | – | – | – | C[C@@H](O)[C@H]1C(=O)N2C(C(=O)O)=C(S[C@@H]3CN[C@H](CNS(N)(=O)=O)C3)[C@H](C)[C@H]12 [Doripenem, doripenem] | MIC (P. aeruginosa strains; Strain 1, read-out: MIC): 2 µg/mL; MIC (P. aeruginosa strains; Strain 2, read-out: MIC): 0.25 µg/mL; MIC (P. aeruginosa strains; Strain 3, read-out: MIC): 4 µg/mL; MIC (P. aeruginosa strains; Strain 4, read-out: MIC): 2 µg/mL; MIC (P. aeruginosa strains; Strain 5, read-out: MIC): 8 µg/mL; MIC (P. aeruginosa strains; Strain 6, read-out: MIC): 0.5 µg/mL; MIC (P. aeruginosa strains; Strain 7, read-out: MIC): 8 µg/mL; MIC (P. aeruginosa strains; Strain 8, read-out: MIC): 2 µg/mL; MIC (P. aeruginosa strains; Strain 9, read-out: MIC): 32 µg/mL; MIC (P. aeruginosa strains; Strain 10, read-out: MIC): 8 µg/mL; MIC (P. aeruginosa strains; range over 10 P. aeruginosa strains, read-out: MICs of each agent alone): 0.25 to 32 µg/mL
